From patent US20230146395A1, “Substituted Pyrimidines and Uses Thereof” (Verge Analytics, Inc., priority 2020, published 2023)
Counter-ions that a name gives are not always drawn.

Experiments:
[1] = tested on: ALS patient (SOD1 A4V) iPSC derived motor neurons; experiment: iPSC MN Survival assay (GFP imaging, six days, hazard ratio from Cox regression); format: cell-based; conditions: Homo sapiens, survival rescue, read-out: C9 iPSC MN Significant survival rescue EC50
[2] = target: T1, PI3Kγ (Homo sapiens, UniProt P48736); experiment: Inhibition of PI3K isoforms: PI3Kγ (microfluidic electrophoresis kinase assay, PIP2/PS substrate); format: biochemical; conditions: p120γ, ATP 100 μM; read-out: PI3Kg IC50
T1 construct: Full length N-terminal; His (N); host or cells: SF9 cells (baculovirus)
Experimental: The kinase substrate was prepared by mixing and sonicating fluorescently-labeled phosphatidylinositol 4,5-phosphate (PIP2) with phospho-L-serine (PS) at 1:20 ratio in 50 mM HEPES buffer pH7.5.
The kinase reactions were assembled in 384-well plates (Greiner) in a total volume of […] as follows. The kinase proteins were pre-diluted in an assay buffer comprising 50 mM HEPES, pH 7.5, 0.012% CHAPS, 1 mM DTT, 10 mM Na3VaO4, 10 mM 3-GP, 3 mM MgCl2, and 40 mM NaCl2, and dispensed into a 384-well plate (10 μL per well). Test compounds were serially pre-diluted in DMSO and added to the protein samples by acoustic dispensing (Labcyte Echo). The concentration of DMSO was equalized to 1% in all samples. All test compounds were tested at 12 concentrations. […] Terminated plates were analyzed on a microfluidic electrophoresis instrument (Caliper LabChip® 3000, Caliper Life Sciences/Perkin Elmer). The change in the relative fluorescence intensity of the PI(4,5)P substrate and PI(3,4,5)P product peaks was measured. The activity in each test sample was determined as the product to sum ratio (PSR): P/(S+P), where P is the peak height of the product, and S is the peak height of the substrate. Percent inhibition (Pinh) was determined using the following equation: […]

[3] = target: T2, PI3Kδ (Homo sapiens, UniProt O00329); experiment: Inhibition of PI3K isoforms: PI3Kδ (microfluidic electrophoresis kinase assay, PIP2/PS substrate); format: biochemical; conditions: p110δ/p85α, ATP 90 μM; read-out: PI3Kd IC50
T2 construct: Full-length N-terminal; GST (N); host or cells: SF9 cells (baculovirus)
Experimental: The kinase substrate was prepared by mixing and sonicating fluorescently-labeled phosphatidylinositol 4,5-phosphate (PIP2) with phospho-L-[…]:20 ratio in 50 mM HEPES buffer pH7.5. The kinase reactions were assembled in 384-well plates (Greiner) in a total volume of […] as follows. The kinase proteins were pre-diluted in an assay buffer comprising 50 mM HEPES, pH 7.5, 0.012% CHAPS, 1 mM DTT, 10 mM Na3VaO4, 10 mM 3-GP, 3 mM MgCl2, and 40 mM NaCl2, and dispensed into a 384-well plate (10 μL per well). Test compounds were serially pre-diluted in DMSO and added to the protein samples by acoustic dispensing (Labcyte Echo). The concentration of DMSO was equalized to 1% in all samples. All test compounds were tested at 12 concentrations. The control samples (0%-inhibition in the absence of inhibitor, DMSO only) and 100%-inhibition (in the absence of enzyme) were assembled in replicates of four and were used to calculate %-inhibition in the presence of test compounds. The reactions were initiated by addition of 10 μL of the PIP2/PS substrate supplemented with ATP. The final concentration of enzymes was 0.5 nM (PI3Kα), 1 nM (PI3Kβ), 10 nM (PI3Kγ), and 0.25 nM (PI3Kδ). The final concentration of ATP was 90 μM (PI3Kα), 60 μM (PI3Kβ), 100 μM (PI3Kγ), and 90 μM (PI3Kδ). The final concentration of PIP2/PS substrate was 1 μM (PIP2). The kinase reactions were allowed to proceed for 3 h at room temperature. Following incubation, the reactions were quenched by addition of 50 μL of termination buffer (100 mM HEPES, pH 7.5, 0.01% Triton X-100, 20 mM EDTA). Terminated plates were analyzed on a microfluidic electrophoresis instrument (Caliper LabChip® 3000, Caliper Life Sciences/Perkin Elmer). The change in the relative fluorescence intensity of the PI(4,5)P substrate and PI(3,4,5)P product peaks was measured. The activity in each test sample was determined as the product to sum ratio (PSR): P/(S+P), where P is the peak height of the product, and S is the peak height of the substrate. Percent inhibition (Pinh) was determined using the following equation: Pinh=(PSR0% inh-PSRcompound)/(PSR0% inh-PSR100% inh)*100 in which PSRcompound is the product/sum ratio in the presence of compound, PSR0% inh is the product/sum ratio in the absence of compound, and the PSR100% inh is the product/sum ratio in the absence of the enzyme. […] (Pinh versus compound concentration) were fitted by a four-parameter sigmoid dose-response model using XLfit software (IDBS).

T1 sequence (P48736 whole entry, canonical isoform): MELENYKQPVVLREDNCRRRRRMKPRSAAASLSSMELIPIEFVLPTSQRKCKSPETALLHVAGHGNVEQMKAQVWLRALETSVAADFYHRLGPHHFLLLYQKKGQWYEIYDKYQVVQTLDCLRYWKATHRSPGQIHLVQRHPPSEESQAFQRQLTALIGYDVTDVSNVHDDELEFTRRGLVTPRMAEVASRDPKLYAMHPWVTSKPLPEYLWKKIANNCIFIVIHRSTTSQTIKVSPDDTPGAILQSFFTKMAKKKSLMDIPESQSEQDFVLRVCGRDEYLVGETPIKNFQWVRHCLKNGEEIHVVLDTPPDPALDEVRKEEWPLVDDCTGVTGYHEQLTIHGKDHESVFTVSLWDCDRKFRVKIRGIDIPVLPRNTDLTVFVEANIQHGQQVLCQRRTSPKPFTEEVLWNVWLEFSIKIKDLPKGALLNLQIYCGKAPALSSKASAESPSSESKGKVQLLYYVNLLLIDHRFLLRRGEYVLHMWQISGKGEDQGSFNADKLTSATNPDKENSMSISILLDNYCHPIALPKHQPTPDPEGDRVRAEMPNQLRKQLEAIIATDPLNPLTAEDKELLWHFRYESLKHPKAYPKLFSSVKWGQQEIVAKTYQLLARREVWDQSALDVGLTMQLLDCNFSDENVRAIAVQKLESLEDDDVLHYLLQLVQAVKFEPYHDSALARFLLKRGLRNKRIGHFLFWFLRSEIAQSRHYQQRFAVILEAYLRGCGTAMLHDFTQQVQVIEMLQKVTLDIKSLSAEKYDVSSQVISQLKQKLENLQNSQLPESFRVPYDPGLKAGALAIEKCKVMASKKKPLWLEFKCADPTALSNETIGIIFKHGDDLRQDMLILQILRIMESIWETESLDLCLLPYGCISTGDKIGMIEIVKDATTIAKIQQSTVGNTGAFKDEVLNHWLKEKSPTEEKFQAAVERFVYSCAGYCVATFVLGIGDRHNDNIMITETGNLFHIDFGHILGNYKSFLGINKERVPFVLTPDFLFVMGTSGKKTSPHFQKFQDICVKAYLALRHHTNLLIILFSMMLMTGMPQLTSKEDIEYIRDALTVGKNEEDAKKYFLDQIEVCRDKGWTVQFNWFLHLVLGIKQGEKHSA
T2 sequence (O00329 whole entry, canonical isoform): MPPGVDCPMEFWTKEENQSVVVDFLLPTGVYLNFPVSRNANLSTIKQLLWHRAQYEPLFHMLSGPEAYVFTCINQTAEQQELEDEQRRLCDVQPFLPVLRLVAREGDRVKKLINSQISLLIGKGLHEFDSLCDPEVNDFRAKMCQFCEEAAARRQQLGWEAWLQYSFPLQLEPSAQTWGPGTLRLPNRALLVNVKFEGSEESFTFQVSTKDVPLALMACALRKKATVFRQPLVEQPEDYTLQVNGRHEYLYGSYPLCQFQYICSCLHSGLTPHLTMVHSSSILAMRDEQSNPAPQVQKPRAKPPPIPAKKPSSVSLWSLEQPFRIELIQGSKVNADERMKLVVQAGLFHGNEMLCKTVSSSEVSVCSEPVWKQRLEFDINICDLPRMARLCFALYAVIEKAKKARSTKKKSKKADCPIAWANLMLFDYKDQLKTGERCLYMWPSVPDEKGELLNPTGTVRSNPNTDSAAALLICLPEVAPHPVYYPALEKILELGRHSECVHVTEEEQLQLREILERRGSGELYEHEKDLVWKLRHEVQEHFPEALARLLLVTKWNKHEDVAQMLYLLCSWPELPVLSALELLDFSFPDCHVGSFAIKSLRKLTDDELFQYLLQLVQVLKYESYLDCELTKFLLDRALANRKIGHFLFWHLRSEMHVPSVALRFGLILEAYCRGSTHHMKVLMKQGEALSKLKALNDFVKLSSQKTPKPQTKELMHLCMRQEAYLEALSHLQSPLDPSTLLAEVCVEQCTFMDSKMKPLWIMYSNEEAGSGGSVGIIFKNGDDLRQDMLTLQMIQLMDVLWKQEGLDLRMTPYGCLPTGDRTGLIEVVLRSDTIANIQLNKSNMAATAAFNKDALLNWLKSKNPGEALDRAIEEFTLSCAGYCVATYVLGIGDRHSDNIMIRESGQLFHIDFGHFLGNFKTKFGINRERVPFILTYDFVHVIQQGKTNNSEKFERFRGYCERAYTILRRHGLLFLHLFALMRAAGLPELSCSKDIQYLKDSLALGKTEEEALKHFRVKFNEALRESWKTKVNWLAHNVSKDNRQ
T2 sequence (P27986 whole entry partner, canonical isoform): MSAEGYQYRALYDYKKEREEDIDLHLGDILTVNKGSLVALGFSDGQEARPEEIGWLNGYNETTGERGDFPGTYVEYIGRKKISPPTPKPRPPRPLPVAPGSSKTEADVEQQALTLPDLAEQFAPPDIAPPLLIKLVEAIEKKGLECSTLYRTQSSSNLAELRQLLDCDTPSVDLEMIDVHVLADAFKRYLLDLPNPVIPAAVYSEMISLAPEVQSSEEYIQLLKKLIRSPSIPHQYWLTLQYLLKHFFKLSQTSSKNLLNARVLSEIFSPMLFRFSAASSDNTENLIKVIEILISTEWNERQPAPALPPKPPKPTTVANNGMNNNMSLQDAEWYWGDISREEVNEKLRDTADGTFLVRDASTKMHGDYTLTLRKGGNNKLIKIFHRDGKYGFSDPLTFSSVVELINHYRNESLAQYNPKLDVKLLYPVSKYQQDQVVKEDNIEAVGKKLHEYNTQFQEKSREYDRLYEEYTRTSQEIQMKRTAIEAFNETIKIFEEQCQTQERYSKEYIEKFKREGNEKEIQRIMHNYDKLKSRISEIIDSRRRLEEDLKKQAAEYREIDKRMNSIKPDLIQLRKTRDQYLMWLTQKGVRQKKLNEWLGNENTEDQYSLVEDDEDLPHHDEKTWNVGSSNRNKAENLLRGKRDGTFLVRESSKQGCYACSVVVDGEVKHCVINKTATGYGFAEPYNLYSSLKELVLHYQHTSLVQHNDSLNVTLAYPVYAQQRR

c1ccc(-c2cc(Nc3nc(N4CCOCC4)c4oc(-c5ccncc5)cc4n3)[nH]n2)cc1 [Compound 1, 4-morpholino-N-(3-phenyl-1H-pyrazol-5-yl)-6-(pyridin-4-yl)furo[3,2-d]pyrimidin-2-amine hydrochloride]
EC50 [1]: 1 µM
IC50 [2]: > 10 µM
IC50 [3]: 2.71 µM
